One assay concerns the target T1, DYRK3 (h) (Homo sapiens, UniProt O43781).
T1 sequence (O43781 1-588): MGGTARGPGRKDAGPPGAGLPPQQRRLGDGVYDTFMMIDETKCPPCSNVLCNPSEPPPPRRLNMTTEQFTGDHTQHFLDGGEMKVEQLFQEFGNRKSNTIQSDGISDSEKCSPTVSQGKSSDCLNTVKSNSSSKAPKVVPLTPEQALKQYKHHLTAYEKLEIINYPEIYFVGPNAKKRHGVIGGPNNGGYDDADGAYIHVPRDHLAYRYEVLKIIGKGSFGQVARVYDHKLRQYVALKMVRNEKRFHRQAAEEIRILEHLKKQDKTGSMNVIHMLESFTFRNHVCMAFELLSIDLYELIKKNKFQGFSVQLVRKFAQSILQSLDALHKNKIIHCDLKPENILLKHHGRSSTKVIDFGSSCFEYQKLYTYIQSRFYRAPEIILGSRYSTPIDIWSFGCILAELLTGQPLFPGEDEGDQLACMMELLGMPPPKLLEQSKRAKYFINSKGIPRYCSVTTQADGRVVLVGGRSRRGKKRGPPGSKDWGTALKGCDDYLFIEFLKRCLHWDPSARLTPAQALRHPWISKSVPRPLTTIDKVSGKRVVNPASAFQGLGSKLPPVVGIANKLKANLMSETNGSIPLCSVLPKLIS
Description: Biochemical kinase assay (CEREP). The note with it: for IC50: 10 μM ATP, performed by CEREP.

In another assay the target is PDGFRα (h) (Homo sapiens, UniProt P16234). Kind of assay: Biochemical kinase assay (CEREP). Conditions: for IC50: 10 μM ATP, performed by CEREP.
Sequence of PDGFRα (h) (P16234 24-1089): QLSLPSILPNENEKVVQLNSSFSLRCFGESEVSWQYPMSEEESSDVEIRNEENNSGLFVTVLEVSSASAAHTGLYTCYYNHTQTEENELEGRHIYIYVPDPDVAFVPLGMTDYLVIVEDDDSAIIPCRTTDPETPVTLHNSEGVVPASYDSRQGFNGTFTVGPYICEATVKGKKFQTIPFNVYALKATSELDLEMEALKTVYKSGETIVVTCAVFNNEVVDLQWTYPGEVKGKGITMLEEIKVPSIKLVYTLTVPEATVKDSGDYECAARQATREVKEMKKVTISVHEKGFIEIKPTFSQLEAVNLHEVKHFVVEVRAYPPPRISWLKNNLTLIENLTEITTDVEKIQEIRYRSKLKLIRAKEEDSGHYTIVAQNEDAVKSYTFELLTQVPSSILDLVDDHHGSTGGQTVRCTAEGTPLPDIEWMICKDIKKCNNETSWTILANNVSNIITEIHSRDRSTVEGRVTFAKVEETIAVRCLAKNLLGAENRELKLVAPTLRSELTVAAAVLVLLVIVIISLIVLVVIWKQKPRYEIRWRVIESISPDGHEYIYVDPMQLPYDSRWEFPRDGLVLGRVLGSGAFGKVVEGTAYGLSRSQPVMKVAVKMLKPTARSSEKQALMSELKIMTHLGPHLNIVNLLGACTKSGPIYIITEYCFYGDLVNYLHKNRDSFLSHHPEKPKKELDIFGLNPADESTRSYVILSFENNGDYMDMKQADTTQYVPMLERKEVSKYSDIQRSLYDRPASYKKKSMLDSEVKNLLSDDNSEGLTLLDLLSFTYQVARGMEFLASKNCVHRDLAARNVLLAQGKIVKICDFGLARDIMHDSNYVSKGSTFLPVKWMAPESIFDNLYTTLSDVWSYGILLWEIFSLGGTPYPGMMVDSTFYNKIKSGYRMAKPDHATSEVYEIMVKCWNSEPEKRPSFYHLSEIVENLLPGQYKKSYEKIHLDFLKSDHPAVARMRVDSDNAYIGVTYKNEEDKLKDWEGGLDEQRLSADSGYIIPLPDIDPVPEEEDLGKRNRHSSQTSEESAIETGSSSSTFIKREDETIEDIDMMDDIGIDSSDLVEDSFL
The target of a further assay is FLT-4 (h) (VEGFR3) (Homo sapiens, UniProt P35916). Description: Biochemical kinase assay (CEREP). The note with it: for IC50: 10 μM ATP, performed by CEREP. The procedure:
We tested all synthetic compounds against a panel of kinases in a biochemical assay. Each data point was measured in duplicate (technical replicates). […] Additional kinase binding studies were performed vs. a select group of functionally and structurally divergent kinases including AAK1 (Adaptor-associated protein kinase 1), BMP2K (BMP-2-inducible protein kinase, where BMP is bone morphogenic protein), GAK (Cyclin G-associated kinase) and STK16 (Serine/threonine-protein kinase 16) (Table 1).

Assay [1] concerns the target STK16 (Serine/threonine-protein kinase 16) (Homo sapiens, UniProt O75716). Kind of assay: Kinase binding displacement assay. Conditions: no ATP present.
Assay [2] concerns the target T2, GAK (Cyclin G-associated kinase) (Homo sapiens, UniProt O14976).
T2 sequence (O14976 1-1311): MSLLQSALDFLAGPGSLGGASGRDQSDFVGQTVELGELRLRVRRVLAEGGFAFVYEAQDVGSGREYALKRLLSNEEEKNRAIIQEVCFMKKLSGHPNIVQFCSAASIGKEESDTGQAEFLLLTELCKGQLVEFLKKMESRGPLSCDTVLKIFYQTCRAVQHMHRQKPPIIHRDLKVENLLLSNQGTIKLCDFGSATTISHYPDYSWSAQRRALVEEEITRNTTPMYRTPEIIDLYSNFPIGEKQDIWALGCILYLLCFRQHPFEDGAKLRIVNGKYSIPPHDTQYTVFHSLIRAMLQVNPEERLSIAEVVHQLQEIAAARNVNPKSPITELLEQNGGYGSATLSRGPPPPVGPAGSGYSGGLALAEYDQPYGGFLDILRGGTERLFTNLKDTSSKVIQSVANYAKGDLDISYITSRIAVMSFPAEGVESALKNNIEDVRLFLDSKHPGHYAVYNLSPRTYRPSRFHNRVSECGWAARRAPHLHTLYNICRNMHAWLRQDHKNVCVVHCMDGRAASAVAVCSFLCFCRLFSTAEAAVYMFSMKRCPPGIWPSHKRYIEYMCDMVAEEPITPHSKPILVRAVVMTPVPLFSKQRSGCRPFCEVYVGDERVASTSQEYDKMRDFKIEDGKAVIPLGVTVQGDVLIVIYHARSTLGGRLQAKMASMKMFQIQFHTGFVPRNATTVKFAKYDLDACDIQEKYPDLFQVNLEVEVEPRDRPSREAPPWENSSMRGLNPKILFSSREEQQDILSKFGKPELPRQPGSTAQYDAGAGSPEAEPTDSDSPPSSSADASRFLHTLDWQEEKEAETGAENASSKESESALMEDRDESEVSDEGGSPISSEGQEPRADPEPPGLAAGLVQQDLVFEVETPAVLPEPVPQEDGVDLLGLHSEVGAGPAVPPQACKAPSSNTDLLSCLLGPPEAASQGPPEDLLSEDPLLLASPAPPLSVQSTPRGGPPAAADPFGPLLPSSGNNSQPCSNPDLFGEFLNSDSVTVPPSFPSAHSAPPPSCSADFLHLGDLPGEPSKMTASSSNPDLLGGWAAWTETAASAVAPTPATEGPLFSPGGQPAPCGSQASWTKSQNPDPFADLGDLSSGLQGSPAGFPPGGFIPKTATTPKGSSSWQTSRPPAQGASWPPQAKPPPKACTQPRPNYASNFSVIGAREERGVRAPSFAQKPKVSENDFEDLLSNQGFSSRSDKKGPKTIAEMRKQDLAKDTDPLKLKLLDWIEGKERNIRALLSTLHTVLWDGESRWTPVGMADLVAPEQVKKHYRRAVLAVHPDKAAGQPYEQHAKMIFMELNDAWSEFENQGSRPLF
Kind of assay: Kinase binding displacement assay. Conditions: no ATP present.

The target in assay [3] is BMP2K (BMP-2-inducible protein kinase) (Homo sapiens, UniProt Q9NSY1). Description: Kinase binding displacement assay. The note with it: no ATP present.
Sequence of BMP2K (BMP-2-inducible protein kinase) (Q9NSY1 whole entry, species assumed): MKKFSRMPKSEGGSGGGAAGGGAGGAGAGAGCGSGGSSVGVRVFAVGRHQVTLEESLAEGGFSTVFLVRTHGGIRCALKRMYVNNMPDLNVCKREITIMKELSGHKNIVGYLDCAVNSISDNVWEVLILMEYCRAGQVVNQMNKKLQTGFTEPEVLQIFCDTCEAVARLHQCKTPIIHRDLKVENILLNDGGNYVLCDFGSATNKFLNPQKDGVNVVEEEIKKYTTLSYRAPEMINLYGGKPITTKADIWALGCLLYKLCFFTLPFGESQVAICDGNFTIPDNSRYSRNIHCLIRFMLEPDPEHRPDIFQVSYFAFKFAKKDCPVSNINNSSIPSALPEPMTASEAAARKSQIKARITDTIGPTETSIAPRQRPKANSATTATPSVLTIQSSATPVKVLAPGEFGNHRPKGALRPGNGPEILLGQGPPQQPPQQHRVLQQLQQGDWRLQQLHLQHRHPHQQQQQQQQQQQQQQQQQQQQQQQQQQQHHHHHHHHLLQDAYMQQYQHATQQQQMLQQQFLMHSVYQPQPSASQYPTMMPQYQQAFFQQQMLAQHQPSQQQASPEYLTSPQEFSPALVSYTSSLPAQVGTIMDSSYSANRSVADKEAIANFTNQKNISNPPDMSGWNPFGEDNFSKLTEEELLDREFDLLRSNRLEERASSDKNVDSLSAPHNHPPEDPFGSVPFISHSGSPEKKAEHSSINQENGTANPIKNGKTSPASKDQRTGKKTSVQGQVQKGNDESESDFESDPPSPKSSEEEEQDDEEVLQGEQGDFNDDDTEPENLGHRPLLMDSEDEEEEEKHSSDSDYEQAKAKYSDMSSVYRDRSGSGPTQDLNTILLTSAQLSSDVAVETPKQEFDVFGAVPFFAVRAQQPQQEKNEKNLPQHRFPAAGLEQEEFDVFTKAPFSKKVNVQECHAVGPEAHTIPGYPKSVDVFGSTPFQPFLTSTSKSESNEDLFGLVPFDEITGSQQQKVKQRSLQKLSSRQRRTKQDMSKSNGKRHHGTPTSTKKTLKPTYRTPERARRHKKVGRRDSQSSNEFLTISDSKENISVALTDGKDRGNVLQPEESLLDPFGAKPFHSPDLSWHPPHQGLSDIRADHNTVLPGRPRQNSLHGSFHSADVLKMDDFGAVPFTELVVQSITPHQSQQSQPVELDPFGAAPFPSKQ
Assay [4] has as its target AAK1 (Adaptor-associated protein kinase 1) (Homo sapiens, UniProt Q2M2I8). Description: Kinase binding displacement assay. The note with it: no ATP present.
For a further assay, the system named is MCF7. Description: Cell proliferation assay. The class given is cell-based. Conditions: Homo sapiens, 50% reduction in cellular proliferation vs DMSO-treated control, read-out: GC50 MCF7. The source says: (§1) The synthesized compounds were next tested in breast cancer and non-transformed breast cell lines.
A further assay relates to T47D. Description: Cell proliferation assay. The note with it: Homo sapiens, 50% reduction in cellular proliferation vs DMSO-treated control, read-out: GC50 T47D. The class given is cell-based.
Text: as §1

Assay [5] concerns MCF7 and T47D breast cancer cell. Kind of assay: Cell proliferation assay (range over both lines). Type of assay: cell-based. The note with it: range over both compounds and both cell lines; read-out: GC50 values, MCF7 and T47D (range).
Text: as §1

Where only a bound is given, the exact number is not on record here.

Sequence of STK16 (Serine/threonine-protein kinase 16) (O75716 whole entry, species assumed): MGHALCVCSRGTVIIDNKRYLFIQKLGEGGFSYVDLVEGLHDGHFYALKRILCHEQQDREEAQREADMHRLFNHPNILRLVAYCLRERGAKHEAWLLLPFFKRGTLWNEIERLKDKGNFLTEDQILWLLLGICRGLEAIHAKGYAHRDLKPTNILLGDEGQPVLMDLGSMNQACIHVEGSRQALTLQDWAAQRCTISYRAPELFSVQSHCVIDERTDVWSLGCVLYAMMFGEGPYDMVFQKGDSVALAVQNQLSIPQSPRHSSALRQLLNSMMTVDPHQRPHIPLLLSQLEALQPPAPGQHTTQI
Sequence of AAK1 (Adaptor-associated protein kinase 1) (Q2M2I8 whole entry, species assumed): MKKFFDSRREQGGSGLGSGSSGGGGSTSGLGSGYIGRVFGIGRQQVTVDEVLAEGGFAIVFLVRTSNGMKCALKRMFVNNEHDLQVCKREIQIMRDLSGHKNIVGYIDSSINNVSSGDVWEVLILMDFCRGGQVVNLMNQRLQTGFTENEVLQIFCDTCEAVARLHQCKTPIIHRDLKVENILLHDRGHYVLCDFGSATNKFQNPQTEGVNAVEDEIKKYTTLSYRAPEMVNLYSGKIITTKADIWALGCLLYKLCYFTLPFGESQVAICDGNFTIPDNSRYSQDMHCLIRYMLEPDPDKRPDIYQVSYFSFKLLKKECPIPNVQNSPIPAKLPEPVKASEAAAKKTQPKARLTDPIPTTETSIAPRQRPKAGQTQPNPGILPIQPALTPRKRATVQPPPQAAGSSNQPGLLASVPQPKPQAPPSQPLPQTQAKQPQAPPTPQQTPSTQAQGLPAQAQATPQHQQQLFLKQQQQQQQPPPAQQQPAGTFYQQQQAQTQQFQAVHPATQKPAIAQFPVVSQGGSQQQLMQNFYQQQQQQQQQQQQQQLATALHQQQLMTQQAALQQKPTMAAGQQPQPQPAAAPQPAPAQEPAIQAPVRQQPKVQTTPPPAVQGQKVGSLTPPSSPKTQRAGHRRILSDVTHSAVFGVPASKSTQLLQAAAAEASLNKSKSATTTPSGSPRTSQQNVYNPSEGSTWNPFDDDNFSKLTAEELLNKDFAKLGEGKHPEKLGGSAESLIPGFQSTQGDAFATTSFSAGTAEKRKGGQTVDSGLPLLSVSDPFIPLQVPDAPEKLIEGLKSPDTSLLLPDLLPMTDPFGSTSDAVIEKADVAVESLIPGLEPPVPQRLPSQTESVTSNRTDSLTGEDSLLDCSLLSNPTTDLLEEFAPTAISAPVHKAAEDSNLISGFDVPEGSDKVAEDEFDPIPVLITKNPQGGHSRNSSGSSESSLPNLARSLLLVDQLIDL
Sequence of FLT-4 (h) (VEGFR3) (P35916 25-1363): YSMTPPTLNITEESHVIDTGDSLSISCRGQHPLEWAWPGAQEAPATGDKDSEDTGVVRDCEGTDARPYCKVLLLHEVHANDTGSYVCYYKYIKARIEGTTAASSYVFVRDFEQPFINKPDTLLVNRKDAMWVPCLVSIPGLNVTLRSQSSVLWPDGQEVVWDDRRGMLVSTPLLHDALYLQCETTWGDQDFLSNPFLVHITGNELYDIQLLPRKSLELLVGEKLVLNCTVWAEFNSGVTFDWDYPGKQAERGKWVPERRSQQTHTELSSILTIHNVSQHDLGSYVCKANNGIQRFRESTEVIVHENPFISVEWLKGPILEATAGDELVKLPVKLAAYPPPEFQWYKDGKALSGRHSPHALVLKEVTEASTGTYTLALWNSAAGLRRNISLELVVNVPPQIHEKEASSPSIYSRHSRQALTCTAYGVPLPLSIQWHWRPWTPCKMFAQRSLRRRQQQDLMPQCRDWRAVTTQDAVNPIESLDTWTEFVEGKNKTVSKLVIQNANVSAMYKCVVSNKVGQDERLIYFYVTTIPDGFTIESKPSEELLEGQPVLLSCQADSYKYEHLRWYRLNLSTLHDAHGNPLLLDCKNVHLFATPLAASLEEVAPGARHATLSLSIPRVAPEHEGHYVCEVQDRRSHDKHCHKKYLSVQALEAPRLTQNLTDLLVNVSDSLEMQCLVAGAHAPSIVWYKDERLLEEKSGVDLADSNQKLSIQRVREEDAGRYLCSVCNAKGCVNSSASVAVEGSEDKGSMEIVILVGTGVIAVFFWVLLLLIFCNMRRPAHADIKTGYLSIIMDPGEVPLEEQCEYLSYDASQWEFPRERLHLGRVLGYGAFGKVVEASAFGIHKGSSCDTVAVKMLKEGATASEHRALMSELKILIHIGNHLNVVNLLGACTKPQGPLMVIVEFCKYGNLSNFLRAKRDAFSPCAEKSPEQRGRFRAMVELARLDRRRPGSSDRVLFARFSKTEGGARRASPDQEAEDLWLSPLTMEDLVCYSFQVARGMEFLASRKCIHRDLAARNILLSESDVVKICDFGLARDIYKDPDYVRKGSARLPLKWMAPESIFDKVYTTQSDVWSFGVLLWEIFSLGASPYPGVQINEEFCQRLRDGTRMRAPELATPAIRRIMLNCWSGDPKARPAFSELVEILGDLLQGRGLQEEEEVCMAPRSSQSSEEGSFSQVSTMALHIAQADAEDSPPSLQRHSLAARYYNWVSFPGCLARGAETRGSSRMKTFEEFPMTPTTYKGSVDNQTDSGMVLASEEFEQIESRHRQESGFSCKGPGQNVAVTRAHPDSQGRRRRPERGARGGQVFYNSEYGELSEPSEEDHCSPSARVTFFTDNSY

Consider “5-Pentafluorosulfanyl-3-ferrocenylindolin-2-one [Compound 12a]”, for which the “inhibition of DYRK3” value on DYRK3 (h) is reported as “low micromolar range”. Also, the IC50 against DYRK3 (h) is 1.7 µM; against PDGFRα (h), greater than 1 µM; against FLT-4 (h) (VEGFR3), greater than 1 µM.
In the case of “5-Pentafluorosulfanyl-3-ferrocenylindolin-2-one [Compound 12b]”, the “inhibition of DYRK3” value at DYRK3 (h) is on record as “low micromolar range”. Besides, the IC50 at DYRK3 (h) is 2.4 µM; at PDGFRα (h), greater than 1 µM; against FLT-4 (h) (VEGFR3), greater than 1 µM.
`O=C1Nc2ccc(S(F)(F)(F)(F)F)cc2/C1=C/c1ccc[nH]1` [Compound 10, (Z)-3-(1H-Pyrrol-2-yl)methylene-5-pentafluorosulfanylindoline-2-one]: the IC50 in assay [1] is 17.6 µM; in assay [2], 34.2 µM; in assay [3] it was 0.452 µM; in assay [4] it was 1 µM; against DYRK3 (h), greater than 1 µM; against PDGFRα (h) it was greater than 1 µM. For the same compound, the IC50 against FLT-4 (h) (VEGFR3) was greater than 1 µM; in the assay with MCF7 it was 4.8 ± 1 µM; in the assay on T47D it was 0.49 ± 0.4 µM; in assay [5], 0.35 to 3.8 µM.
Take `O=C1Nc2cc(S(F)(F)(F)(F)F)ccc2/C1=C/c1ccc[nH]1` [Compound 11, (Z)-3-(1H-Pyrrol-2-yl)methylene-6-pentafluorosulfanylindoline-2-one]: the IC50 was 135 µM in assay [1]; 0.476 µM in [2]; 187 µM in assay [3]; 1000 µM in assay [4]; greater than 1 µM against DYRK3 (h); 0.098 µM against PDGFRα (h). In addition, the IC50 is 0.23 µM on FLT-4 (h) (VEGFR3), 0.69 ± 0.4 µM with MCF7, 0.35 ± 0.1 µM with T47D and 0.35 to 3.8 µM in [5]. In addition, on PDGFRα (h), the “potency vs. PDGFRα” value turned out to be 0.098 µM.
On to `Cc1[nH]c(/C=C2\C(=O)Nc3ccc(S(F)(F)(F)(F)F)cc32)c(C)c1CCC(=O)O` [Compound 13, (Z)-3-(2,4-Dimethyl-5-((5-pentafluorosulfanyl-2-oxoindolin-3-ylidene)methyl)-1H-pyrrol-3-yl)propanoic acid], for which the IC50 (in assay [1]; in assay [2]; in [3]; in assay [4]; on DYRK3 (h); against PDGFRα (h)) was greater than 1 µM each time. On FLT-4 (h) (VEGFR3), this compound returned an IC50 of 0.53 µM.
For the compound `Cc1[nH]c(/C=C2\C(=O)Nc3cc(S(F)(F)(F)(F)F)ccc32)c(C)c1CCC(=O)O` [Compound 14, (Z)-3-(2,4-Dimethyl-5-((6-pentafluorosulfanyl-2-oxoindolin-3-ylidene)methyl)-1H-pyrrol-3-yl)propanoic acid], the IC50 was greater than 1 µM in assay [1]; greater than 1 µM in assay [2]; greater than 1 µM in [3]; greater than 1 µM in [4]; greater than 1 µM against DYRK3 (h); 0.0031 µM against PDGFRα (h). Also, at FLT-4 (h) (VEGFR3), the IC50 was found to be 0.018 µM. For the same compound, at PDGFRα (h), the “IC50 vs. PDGFRα” value was “low nM potency”. The “IC50 vs. VEGFR3” value on FLT-4 (h) (VEGFR3) was “low nM potency”.

The values above are taken from paper PMC5708334, “Synthesis of kinase inhibitors containing a pentafluorosulfanyl moiety” (Organic & Biomolecular Chemistry, 2017).
